As a reminder, the IC50 is the concentration needed to halve the response being measured. By inhibition is commonly meant the share of the control response that was lost under treatment. A higher inhibition goes with a strong effect.

Like-named read-outs stand apart in the source and are kept apart here. A value given as a limit tells only on which side of the number the result lay.

In assay [1] the target is SRPK1 (Homo sapiens, UniProt Q96SB4). In words: In vitro kinase assay (Kinase-Glo), SRPK1. The format is biochemical. The following applies: for activity in the in vitro SRPK1 kinase assay: words. For orientation: Kinase-Glo reads ATP consumption through a luciferase reaction.
Sequence of SRPK1 (Q96SB4 whole entry, species assumed): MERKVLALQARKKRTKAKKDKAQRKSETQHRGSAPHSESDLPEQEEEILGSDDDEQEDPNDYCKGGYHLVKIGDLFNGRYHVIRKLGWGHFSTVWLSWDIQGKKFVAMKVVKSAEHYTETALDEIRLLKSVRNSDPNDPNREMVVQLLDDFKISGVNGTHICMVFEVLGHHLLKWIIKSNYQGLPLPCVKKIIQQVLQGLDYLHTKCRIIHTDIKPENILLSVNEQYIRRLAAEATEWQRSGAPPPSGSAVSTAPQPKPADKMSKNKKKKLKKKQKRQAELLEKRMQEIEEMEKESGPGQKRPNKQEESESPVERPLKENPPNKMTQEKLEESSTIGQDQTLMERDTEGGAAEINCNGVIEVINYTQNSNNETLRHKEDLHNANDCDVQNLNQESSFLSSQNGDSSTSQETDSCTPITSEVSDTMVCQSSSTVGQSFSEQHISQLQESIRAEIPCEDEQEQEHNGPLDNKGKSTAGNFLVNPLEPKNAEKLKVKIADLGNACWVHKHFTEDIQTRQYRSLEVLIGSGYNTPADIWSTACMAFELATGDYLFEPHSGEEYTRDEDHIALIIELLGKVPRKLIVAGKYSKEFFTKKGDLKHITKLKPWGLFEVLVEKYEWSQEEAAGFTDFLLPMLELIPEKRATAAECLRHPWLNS
In assay [2] the target is SRPK2 (Homo sapiens, UniProt P78362). In words: In vitro kinase assay, SRPK2. The format is biochemical.
Sequence of SRPK2 (P78362 whole entry, species assumed): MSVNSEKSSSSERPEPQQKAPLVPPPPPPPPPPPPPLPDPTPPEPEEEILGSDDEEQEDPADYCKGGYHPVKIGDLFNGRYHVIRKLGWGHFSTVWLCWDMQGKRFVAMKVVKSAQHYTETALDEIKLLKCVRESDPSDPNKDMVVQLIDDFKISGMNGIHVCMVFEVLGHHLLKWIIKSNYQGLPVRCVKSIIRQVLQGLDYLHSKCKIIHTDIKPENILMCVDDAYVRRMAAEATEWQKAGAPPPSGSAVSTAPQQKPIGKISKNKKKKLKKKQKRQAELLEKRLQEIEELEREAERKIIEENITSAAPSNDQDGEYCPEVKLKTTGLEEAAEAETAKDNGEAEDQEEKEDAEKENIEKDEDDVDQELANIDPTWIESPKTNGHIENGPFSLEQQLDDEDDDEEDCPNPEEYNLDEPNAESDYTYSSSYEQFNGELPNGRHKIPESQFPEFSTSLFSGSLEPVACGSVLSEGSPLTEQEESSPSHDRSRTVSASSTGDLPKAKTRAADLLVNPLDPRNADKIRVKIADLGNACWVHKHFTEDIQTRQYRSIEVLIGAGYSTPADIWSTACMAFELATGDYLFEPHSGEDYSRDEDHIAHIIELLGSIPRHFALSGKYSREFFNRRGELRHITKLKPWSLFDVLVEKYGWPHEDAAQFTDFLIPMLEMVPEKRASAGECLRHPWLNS
Assay [3] has as its system SRPK1 expression in ARPE-19 cells. In words: SRPK1 expression in ARPE-19 cells (western blot). The format is cell-based, human. The conditions noted are these: 10 μM, up to six days. (In general: Immunoblotting shows a protein as a band on a membrane.)
Protocol: Protein samples (30-50 μg) were mixed with 1× sodium-dodecyl sulphate (SDS) loading buffer (100 mM Tris-HCl, 4% SDS, 20% glycerol, 0.2% (w/v) bromophenol blue, and 5% final concentration 2-mercaptoethanol, pH6.8). To denature the protein, samples were boiled for five minutes at 100° C.
The separated proteins were then electrophoretically blotted to a methanol-activated polyvinylidene fluoride (PVDF) membrane (Fisher Scientific) by wet transfer for two hours at 90V in transfer buffer (50 mM Tris-HCl, 38 mM glycine, 20% methanol, pH8.3). […] The washes were repeated and the bands were detected using the Enhanced Chemoluminiscence (ECL) SuperSignal West Femto Maximum Sensitivity Substrate kit (Pierce).
Initially the effect of compound treatment on SRPK1 and SRSF1 expression was determined.
The subject of assay [4] is laser-induced CNV. Put plainly: Laser-induced mouse CNV model, intravitreal injection. In kind it is in vivo. The procedure: Laser Lesion Induction Protocol
Six to eight week-old C57/B6 mice (B&K Laboratories) and adult Norway-Brown rats (Harlan Laboratories) were anaesthetized with an intraperitoneal injection of a mixture of 50 mg/kg ketamine and 0.5 mg/kg medetomidine. The pupils were dilated with 2.5% phenylephrine hydrochloride and 1% tropicamide. Four photocoagulation lesions were delivered with a krypton red laser (Mice: 250 mW, 0.01 s, 75 μm, Rats: 200 mW, 0.01 s, 75 μm, IRIS Medical 810 nm Oculight Slx laser) between the retinal vessels in a peripapillary distribution at a distance of 1-2 disc-diameters in each eye. Only laser lesions with a subretinal bubble at the time of treatment were included in the study. […] Animals were culled on either day 4 or day 14 and eyes were either unfixed for retinal dissection and protein extraction, or fixed and enucleated and choroids stained for isolectin-B4 and examined.

Assay [5] concerns neovascular AMD. The conditions noted are these: 0.5 mg monthly, at one year; cited from earlier work.
Setting [6] is: Table 1, read-out: IC50 (nM) for SRPK1.

`CN(C)CCN1CCN(c2ccc(C(F)(F)F)cc2NC(=O)c2ccc(-c3cccnc3)o2)CC1` [SPHINX6]: the IC50 in assay [1] (FIG. 7, read-out: SRPK1 inhibition IC50) worked out at 173 nM; in assay [1] (setting [6]) it was 177 nM.
Take `CN(C)CCNc1ccc(C(F)(F)F)cc1NC(=O)c1ccc(-c2cccnc2)o1` [SPHINX8]: the IC50 in assay [1] (setting [6]) was determined as 9310 nM. Besides, in assay [1], the “activity in the in vitro SRPK1 kinase assay” value is “no activity”.
The corresponding values for `O=C(Nc1cc(C(F)(F)F)ccc1NCc1cccnc1)c1ccc(-c2cccnc2)o1` [SPHINX9] are above 10000 nM and “no activity”.
With `O=C(Nc1cc(C(F)(F)F)ccc1NCc1cccnc1)c1ccc(-c2ccncc2)o1` [SPHINX10], the IC50 in assay [1] (setting [6]) is above 10000 nM. The “activity in the in vitro SRPK1 kinase assay” value in assay [1] was “no activity”.
Consider `CN1CCN(c2ccc(C(F)(F)F)cc2NC(=O)c2ccc(-c3cccnc3)o2)CC1` [SPHINX12], for which the 50% inhibitory concentration (IC50) in assay [1] (setting [6]) was determined as 367 nM.
The same measure, in the same setting: the result for `CN1CCN(c2ccc(C(F)(F)F)cc2NC(=O)c2ccc(C#N)o2)CC1` [SPHINX14] reads 1270 nM.
Regarding `Cc1ccc(C(=O)Nc2cc(C(F)(F)F)ccc2N2CCOCC2)o1` [SPHINX, 5-methyl-N-[2-(morpholin-4-yl)-5-(trifluoromethyl)phenyl]furan-2-carboxamide], in assay [2], the “preference for SRPK1 over SRPK2” value is “greater than 10 fold”. The inhibition at 10 µM in assay [2] (at 10 μM) was 10%. For the same molecule, in assay [3], the SRPK1 expression result was “did appear to reduce SRPK1 expression”. In assay [4] (discussion summary, route not stated), the “area of neovascular lesions, mouse laser-induced CNV model” value is recorded as “achieving significance”. For the same molecule, the “neovascular area vs control injected eyes” value in assay [4] (two intravitreal injections of 10 ng, mouse) is reported as “significantly reduced neovascular area”.

B1: Lucentis: humanized anti-VEGF antibody fragment, FDA approved for the treatment of neovascular AMD (antibody, chains of the INN, looked up, V domains shown)
VH: EVQLVESGGGLVQPGGSLRLSCAASGYDFTHYGMNWVRQAPGKGLEWVGWINTYTGEPTYAADFKRRFTFSLDTSKSTAYLQMNSLRAEDTAVYYCAKYPYYYGTSHWYFDVWGQGTLVTVSS
VL: DIQLTQSPSSLSASVGDRVTITCSASQDISNYLNWYQQKPGKAPKVLIYFTSSLHSGVPSRFSGSGSGTDFTLTISSLQPEDFATYYCQQYSTVPWTFGQGTKVEIK
modifications: Fab
notes: humanized anti-VEGF antibody fragment, FDA approved for the treatment of neovascular AMD
With B1, in assay [5], the “patients who maintained visual acuity (loss of <15 letters)” value was “approximately 95%” and the “patients with improved vision (gain of ≥15 letters)” value is given as at most 40%.
